Where “and” joins values, the source holds several entries; their conditions need not be identical. Equal entries are not always repeated.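 These data come from cells grown in 96-well plates and exposed to compound for 48 hours at five concentrations. At the GI50, growth is halved. TGI is the concentration that stops growth completely.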
What was measured:
Assay in all cases: growth of human tumour cells (NCI), 48 h
[1] = test system: MOLT-4 leukemia
[2] = test system: SK-MEL-28 melanoma
[3] = test system: HOP-62 NSCLC
[4] = test system: HS 578T breast
[5] = test system: CAKI-1 renal
[6] = test system: SNB-75 CNS
[7] = test system: OVCAR-5 ovarian
[8] = test system: PC-3 prostate
[9] = test system: SF-539 CNS
[10] = test system: UACC-62 melanoma

SMILES | TGI [1] [µM] | TGI [2] [µM] | TGI [3] | TGI [4] [µM] | TGI [5] [µM] | TGI [6] [µM] | TGI [7] [µM] | TGI [8] [µM] | TGI [9] [µM] | TGI [10] [µM] | GI50 [1] [µM] | GI50 [2] [µM] | GI50 [3] [µM] | GI50 [4] [µM] | GI50 [5] [µM] | GI50 [6] [µM] | GI50 [7] [µM] | GI50 [8] [µM] | GI50 [9] [µM] | GI50 [10] [µM]
COc1ccc2c(c1)/c(=C/C#N)c1c3ccccc3[n+](C)n21 | > 57.2 | 14.3 | 29.6 µM | 50.4 | 47.3 | 9.21 | 42.8 | 11.7 | 11.8 | 42.3 | – | – | – | – | – | – | – | – | – | –
COc1ccc(C2=NNC(=O)c3ccccc3N2c2nc(-c3cccs3)nc3cc(OC)c(OC)cc23)cc1 | > 100 | 5 | 17 µM | 27.5 | 44.7 | 14.1 | > 100 | > 100 | 8.56 | 5.79 | – | – | – | – | – | – | – | – | – | –
O=c1[nH]c2ccc(CC(=S)N3CCOCC3)cc2o1 | > 100 | > 100 | > 100 µM | > 100 | > 100 | > 100 | > 100 | > 100 | > 100 | > 100 | – | – | – | – | – | – | – | – | – | –
CCOC(=O)N1CCC2(CC1)C[C@@](C(C)=O)(c1ccccc1)C(C)O2 (stereo partly specified) | > 100 | > 100 | > 100 µM | > 100 | > 100 | > 100 | > 100 | > 100 | > 100 | > 100 | – | – | – | – | – | – | – | – | – | –
COc1cccc(CCNc2c(C#N)c3n(c4ccccc4[n+]3C)c3ncccc23)c1 | 7.45 | 44.1 | 43.8 µM | 15 | > 100 | 12.8 | 34 | 31.4 | 3.55 | > 59.4 | – | – | – | – | – | – | – | – | – | –
C(=N\NC1=NCCN1)/c1ccc2ccccc2c1 | 42.8 | 28.7 | 31 µM | 43.3 | 28 | > 100 | 44 | 28.5 | 39.4 | 29 | – | – | – | – | – | – | – | – | – | –
COc1cccc(OC)c1NC(=O)C(=O)Nn1c(NNC(=O)c2ccncc2)nc2ccccc2c1=O | > 100 | > 100 | > 100 µM | > 100 | > 100 | > 100 | > 100 | > 100 | > 100 | > 100 | – | – | – | – | – | – | – | – | – | –
CC1CN(CCO)CCN1c1ccccc1 (stereo unspecified) | > 100 | > 100 | > 100 µM | > 100 | > 100 | > 100 | > 100 | > 100 | > 100 | > 100 | – | – | – | – | – | – | – | – | – | –
CN(C)CC1CCC/C(=C\c2ccc(OC(=O)/C=C/c3ccc(Cl)cc3)cc2)C1=O (stereo unspecified) | 2.86 | 14.7 | 14.8 µM | 24.6 | 5.12 | 24.9 | 25.7 | 11.7 | 5.79 | 19.1 | – | – | – | – | – | – | – | – | – | –
O=c1[nH]cnc2c1cnn2Cc1cnnn1COCCO | > 100 | > 100 | > 100 µM | > 100 | > 100 | > 100 | > 100 | > 100 | > 100 | > 100 | – | – | – | – | – | – | – | – | – | –
O=S(=O)(/N=C(\NO)Nc1ccc(Cl)cc1)c1cc2ccccc2s1 | 77.8 | 39.6 | 34.8 µM | 37.5 | 34.7 | 29.8 | 29.5 | 27.7 | 40.2 | 29.3 | – | – | – | – | – | – | – | – | – | –
COC(=O)c1c2c(cc3c1CC1(Cc4ccccc4C1)C3)CCC2 | 40.2 | > 100 | > 100 µM | 79.7 | 78.2 | > 100 | > 100 | 48.1 | > 100 | 58.8 | – | – | – | – | – | – | – | – | – | –
Cc1cc(C)c2c(n1)S(=O)(=O)N(CCCN1CCN(c3cccc(Cl)c3)CC1)/C(=C(\O)c1ccc(Br)cc1)C2=O | 60.2 | > 100 | > 100 µM | > 100 | 49.4 | 28.3 | > 100 | > 100 | 95.6 | > 100 | – | – | – | – | – | – | – | – | – | –
O=C(NC1C/C(=N/O)c2c(Br)sc(Br)c21)C(F)(F)F (stereo unspecified) | > 100 | – | – | 36.3 | 58 | > 100 | > 100 | 45.6 | 38.9 | > 100 | – | – | – | – | – | – | – | – | – | –
CSc1ncc2c(n1)-c1ccccc1OC2 | > 100 | – | – | > 100 | 84.7 | > 100 | > 100 | > 100 | > 100 | > 100 | – | – | – | – | – | – | – | – | – | –
COc1ccc([I+]c2ccc(OC)cc2)cc1 | > 100 | > 100 | > 73.2 µM and 92 µM | > 100 | > 100 | > 100 | > 100 | > 100 | > 100 | > 100 | 55.4 | 20.6 | 3.34 | 18.8 | > 85.3 | 14.9 | > 60.8 | 15.7 | 11 | 29.9
